Source: article PMC7083565, “In vitro metabolism, reaction phenotyping, enzyme kinetics, CYP inhibition and induction potential of ataluren” (Pharmacology Research & Perspectives, 2020)

Columns and labels:
CYP2C9 = test: CYP induction in primary human hepatocytes: CYP2C9; format: in vitro ADME; conditions: male, 48 h
Description: Human hepatocytes isolated from three Caucasian males were transferred to 48‐well collagen‐coated plates at 0.14 × 10^6 cells/well in planting media for attachment. After attachment, planting media was replaced with sandwich media and the cells were incubated until clusters were established. […] The incubation solutions were aspirated and replaced with freshly prepared incubation solutions containing ataluren for an additional 24 hours. […] The incubation solutions were then aspirated and 150 µL of K‐H buffer containing CYP substrates were added. The hepatocytes were incubated for 30 minutes for CYP2C8 (10 µmol/L amodiaquine), 1 hour for CYP3A4 (125 µmol/L testosterone), and 4 hours for CYPs 1A2 (100 µmol/L phenacetin), 2A6 (100 µmol/L coumarin), 2B6 (150 µmol/L bupropion), 2C9 (50 µmol/L tolbutamide), 2C19 (100 µmol/L S‐mephenytoin), and 2E1 (300 µmol/L chlorzoxazone) activity assays. The reactions were stopped by the addition of 0.15 mL of ice‐cold methanol except that coumarin‐treated cells were incubated with β‐glucuronidase and aryl sulfatase for additional 1 hour to free 7‐hydroxycoumarin before the addition of 0.2 mL of ice‐cold methanol. Metabolite formation in incubations with test compounds and control inhibitors was assessed with validated LC‐MS/MS methods for each of the reaction products as described in Table S2. Enzymatic activity for each CYP was calculated using the absolute amount of metabolite formed (pmol) divided by hepatocytes in the incubation (million cells) and the incubation time (minute). The relative fold induction in enzymatic activity was calculated by comparing the rate of metabolite formation for treatment groups to that of the solvent control group (reported as vehicle control%) or positive control group (reported as positive control%).

CYP2B6 = target: T1, CYP2B6 (Homo sapiens, UniProt P20813); test: CYP inhibition in pooled human liver microsomes: CYP2B6; format: in vitro ADME; conditions: CYP2B6, HLM, estimated, concentrations up to 400 μmol/L
T1 construct: tissue XenoTech LLC, Celsis-In Vitro Technologies, or Tissue Transformation Technologies; host or cells: pooled human liver microsomes
T1 sequence (P20813 1-491): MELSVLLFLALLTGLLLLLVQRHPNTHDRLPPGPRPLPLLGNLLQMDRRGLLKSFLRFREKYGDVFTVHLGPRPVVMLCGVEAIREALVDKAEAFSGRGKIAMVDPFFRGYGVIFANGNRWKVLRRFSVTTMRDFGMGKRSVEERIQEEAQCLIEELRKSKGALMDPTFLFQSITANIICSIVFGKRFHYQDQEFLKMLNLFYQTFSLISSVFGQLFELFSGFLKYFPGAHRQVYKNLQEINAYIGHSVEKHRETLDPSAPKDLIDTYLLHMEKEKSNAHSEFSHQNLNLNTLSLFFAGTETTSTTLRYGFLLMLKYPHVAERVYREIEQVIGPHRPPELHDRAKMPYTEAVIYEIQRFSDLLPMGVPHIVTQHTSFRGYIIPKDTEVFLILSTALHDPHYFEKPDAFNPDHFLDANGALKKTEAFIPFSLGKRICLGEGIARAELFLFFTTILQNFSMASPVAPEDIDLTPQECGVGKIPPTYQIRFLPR
Description: (§1) The final concentration of each probe substrate was near the experimentally determined Km value for the indicated enzyme. Ataluren or prototypical CYP inhibitors (positive controls) was incubated (n = 3) with probe substrates and HLM in 100 mmol/L phosphate buffer (pH 7.4) in a total volume of approximately 0.25 mL, and the reactions were initiated by the addition of 1 mmol/L NADPH at 37°C. The reactions were carried out using previously established conditions to ensure linearity with respect to protein concentration and incubation time (Table S1). Incubations were stopped with the addition of ice‐cold acetonitrile. Metabolite formation in incubations with test compound and control inhibitors was assessed with LC‐MS/MS methods for each of the reaction products as described in Table S2. […] After 7 minutes incubation at 37°C, the reaction was stopped by the addition of ice‐cold acetonitrile, followed by membrane plate filtration. The filtrates were used for LC‐MS/MS analysis. […] IC50 values were determined by nonlinear regression with GraphPad Prism 5 using the following four‐parameter sigmoidal‐logistic IC50 equation: Fit=background+range-background/[1+I/IC50^slope]
(§2) Where, I is the inhibitor concentration, and background was set to 0 and range to 100, as percent of control values are utilized. K i was determined by nonlinear regression with GraphPad Prism 5 using best fit model.

CYP1A2 = target: T2, CYP1A2 (Homo sapiens, UniProt P05177); test: CYP inhibition in pooled human liver microsomes: CYP1A2; format: in vitro ADME; conditions: CYP1A2, HLM, estimated, concentrations up to 400 μmol/L
T2 construct: tissue XenoTech LLC, Celsis-In Vitro Technologies, or Tissue Transformation Technologies; host or cells: pooled human liver microsomes
T2 sequence (P05177 1-516): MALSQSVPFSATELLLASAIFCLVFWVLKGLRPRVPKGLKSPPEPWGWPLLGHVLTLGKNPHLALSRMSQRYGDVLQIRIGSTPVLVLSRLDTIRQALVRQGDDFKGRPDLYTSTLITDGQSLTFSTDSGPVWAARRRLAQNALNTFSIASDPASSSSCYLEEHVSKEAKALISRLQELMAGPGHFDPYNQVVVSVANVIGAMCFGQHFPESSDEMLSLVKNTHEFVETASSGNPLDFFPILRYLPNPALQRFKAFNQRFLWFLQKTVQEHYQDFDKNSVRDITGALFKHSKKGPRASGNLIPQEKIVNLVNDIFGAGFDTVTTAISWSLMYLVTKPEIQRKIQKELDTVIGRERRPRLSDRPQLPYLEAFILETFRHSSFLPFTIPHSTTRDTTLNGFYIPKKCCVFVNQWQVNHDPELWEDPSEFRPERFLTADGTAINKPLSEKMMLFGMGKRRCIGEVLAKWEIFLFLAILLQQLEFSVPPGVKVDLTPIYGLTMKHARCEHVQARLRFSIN
Description: as §1, §2

[1] = Glucuronidation in liver microsomes (tissue comparison); format: in vitro ADME, human; conditions: 10 μmol/L, 60 minutes, n = 1

## O=C(O)c1cccc(-c2noc(-c3ccccc3F)n2)c1 [ataluren, Ataluren]
CYP2C9; 4 µM
  Vehicle control %, Mean: 100%
CYP2C9; 400 µM
  Vehicle control %, Mean: 146%
CYP2C9; hepatocytes, 400 µmol/L
  induction over vehicle control, CYP2C9 activity: ~1.5 fold
CYP2B6
  IC50: > 400 µM
CYP1A2
  IC50: > 400 µM
[1]
  ataluren loss: 31.4%
